According to patent US20250236607A1, “CYCLIN-DEPENDENT KINASE 9 (CDK9) DEGRADERS AND METHODS OF USING THEREOF” (OHIO STATE INNOVATION FOUNDATION, priority 2022, published 2025):
Converted amounts (≈) assume the structure as drawn. “And” between values parts separate entries of the source, which are not always exact repeats. Identical values can stand only once. Like-named read-outs stand apart in the source and are kept apart here.

Tests used:
Kinetic solubility assay = conditions: for Solubility / solubility at 1.5 h: kinetic solubility, PBS pH 7.4; for solubility at 1.5 h: Solubility (μM)
CDK9 = target: T1, CDK9 (Homo sapiens, UniProt P50750+Q96SW2); assay: CDK9 degradation potency (DC50) of VIP152-based degraders; assay type: cell-based; conditions: VIP152-based series
T1 construct: endogenous in cells
T1 sequence (P50750 whole entry): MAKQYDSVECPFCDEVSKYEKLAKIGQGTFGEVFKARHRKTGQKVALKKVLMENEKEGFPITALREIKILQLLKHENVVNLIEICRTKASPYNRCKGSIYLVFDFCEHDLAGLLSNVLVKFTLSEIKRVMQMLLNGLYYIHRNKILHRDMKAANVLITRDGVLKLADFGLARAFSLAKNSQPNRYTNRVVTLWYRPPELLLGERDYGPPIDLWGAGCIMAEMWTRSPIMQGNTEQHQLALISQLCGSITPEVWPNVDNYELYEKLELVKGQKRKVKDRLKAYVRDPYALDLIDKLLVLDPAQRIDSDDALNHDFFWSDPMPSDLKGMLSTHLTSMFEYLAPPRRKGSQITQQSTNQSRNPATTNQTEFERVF
T1 sequence (O60563 whole entry partner): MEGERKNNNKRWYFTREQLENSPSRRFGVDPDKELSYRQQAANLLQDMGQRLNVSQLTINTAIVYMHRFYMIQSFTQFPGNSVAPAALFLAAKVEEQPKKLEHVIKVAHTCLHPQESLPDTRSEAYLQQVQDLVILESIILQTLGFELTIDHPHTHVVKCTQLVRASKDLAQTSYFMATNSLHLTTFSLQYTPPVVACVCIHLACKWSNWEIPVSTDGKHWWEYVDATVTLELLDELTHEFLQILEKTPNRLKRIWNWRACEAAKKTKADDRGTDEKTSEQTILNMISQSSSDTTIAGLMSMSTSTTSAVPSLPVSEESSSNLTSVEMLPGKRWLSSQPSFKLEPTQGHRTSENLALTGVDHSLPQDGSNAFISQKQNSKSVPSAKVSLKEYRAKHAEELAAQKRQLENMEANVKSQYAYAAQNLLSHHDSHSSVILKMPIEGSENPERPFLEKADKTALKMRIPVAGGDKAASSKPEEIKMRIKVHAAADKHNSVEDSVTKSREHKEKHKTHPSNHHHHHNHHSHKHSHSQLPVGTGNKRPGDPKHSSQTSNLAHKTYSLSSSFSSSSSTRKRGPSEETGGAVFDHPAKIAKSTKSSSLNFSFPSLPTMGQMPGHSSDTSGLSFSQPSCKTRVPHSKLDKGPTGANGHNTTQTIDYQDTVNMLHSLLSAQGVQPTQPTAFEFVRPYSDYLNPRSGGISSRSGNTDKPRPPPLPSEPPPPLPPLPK
T1 sequence (Q96SW2 whole entry): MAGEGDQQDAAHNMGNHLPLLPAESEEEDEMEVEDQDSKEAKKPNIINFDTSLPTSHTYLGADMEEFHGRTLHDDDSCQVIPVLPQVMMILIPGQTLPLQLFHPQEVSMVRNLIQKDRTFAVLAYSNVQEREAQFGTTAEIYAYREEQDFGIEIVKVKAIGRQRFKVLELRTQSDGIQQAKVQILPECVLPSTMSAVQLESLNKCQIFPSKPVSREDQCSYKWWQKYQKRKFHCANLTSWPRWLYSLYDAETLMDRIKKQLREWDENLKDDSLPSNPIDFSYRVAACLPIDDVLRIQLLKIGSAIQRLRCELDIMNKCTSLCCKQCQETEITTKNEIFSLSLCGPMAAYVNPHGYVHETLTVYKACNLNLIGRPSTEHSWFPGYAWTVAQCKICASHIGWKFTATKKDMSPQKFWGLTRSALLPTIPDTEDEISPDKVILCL
T1 sequence (Q16531 whole entry partner): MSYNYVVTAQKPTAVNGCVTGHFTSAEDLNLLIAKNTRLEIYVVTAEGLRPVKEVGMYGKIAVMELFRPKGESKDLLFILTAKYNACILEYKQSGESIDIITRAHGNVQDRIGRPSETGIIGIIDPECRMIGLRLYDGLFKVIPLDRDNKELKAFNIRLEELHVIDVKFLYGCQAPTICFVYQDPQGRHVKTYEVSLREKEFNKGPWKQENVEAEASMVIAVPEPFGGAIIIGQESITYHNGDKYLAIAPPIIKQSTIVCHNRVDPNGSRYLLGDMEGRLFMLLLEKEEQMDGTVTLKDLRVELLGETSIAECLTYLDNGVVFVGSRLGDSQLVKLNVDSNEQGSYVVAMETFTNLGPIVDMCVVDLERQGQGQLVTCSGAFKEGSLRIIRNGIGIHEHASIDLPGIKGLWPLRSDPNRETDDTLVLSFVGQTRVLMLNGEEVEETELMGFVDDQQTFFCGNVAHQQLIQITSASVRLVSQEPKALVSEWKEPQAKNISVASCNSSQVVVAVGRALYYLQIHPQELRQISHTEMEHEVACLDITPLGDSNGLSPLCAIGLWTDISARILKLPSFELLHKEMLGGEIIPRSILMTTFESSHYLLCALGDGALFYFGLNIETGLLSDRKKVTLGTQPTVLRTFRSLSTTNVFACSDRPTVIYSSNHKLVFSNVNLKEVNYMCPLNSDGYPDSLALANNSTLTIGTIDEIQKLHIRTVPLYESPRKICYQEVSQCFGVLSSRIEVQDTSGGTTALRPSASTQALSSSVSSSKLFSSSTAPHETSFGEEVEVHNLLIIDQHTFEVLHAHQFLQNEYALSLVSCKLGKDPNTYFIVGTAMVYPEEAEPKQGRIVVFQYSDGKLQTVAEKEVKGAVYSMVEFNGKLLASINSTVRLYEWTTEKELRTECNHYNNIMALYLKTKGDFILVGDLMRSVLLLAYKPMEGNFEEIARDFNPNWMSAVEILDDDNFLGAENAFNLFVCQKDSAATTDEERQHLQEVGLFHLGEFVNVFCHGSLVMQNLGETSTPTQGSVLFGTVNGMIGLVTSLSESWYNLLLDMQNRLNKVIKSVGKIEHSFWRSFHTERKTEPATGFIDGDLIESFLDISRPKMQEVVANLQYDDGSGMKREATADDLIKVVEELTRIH
Source text: (§1) Through amide coupling using I-ethyl-3-carbodiimide hydrochloride (EDC.HCl), the alkynyl derivatives of 4.16, 4.29 and 4.30 were synthesized. Using these VIP152-derivatives, degraders 4.31, 4.33 and 4.34 were synthesized using click chemistry. Degrader 4.32 was also synthesized using amide coupling conditions with (1-[Bis([…])methylene]-1H-1,2,3-triazolo[4,5-b]pyridinium 3-oxide hexafluorophosphate (HATU) and the carboxylic acid 4.28. Scheme 7 illustrates the synthesis of this initial series. The series was evaluated for cytotoxicity against MOLM13 cells (IC50) and for their CDK9 degradation potency (DC50). The results are provided in Table 3.

[1] = Chromatographic log D determination (log k′80); assay type: physicochemical; conditions: chromatographic log D, PLRP-S column, pH 7.72
Description: Chromatographic Log D Determination. Test samples were prepared from 10 mM stock solutions in DMSO, to make 122 μM solutions in acetonitrile. Retention times were determined on a Shimadzu High Performance Liquid Chromatography (HPLC) system with Agilent PLRP-S column, 100 Å, 5 um particle size, 50×4.6 mm (part no.: PL1512-1500) with 1 mL/min flow rate. A 65 mM aqueous solution of ammonium acetate was prepared in water and diluted with acetonitrile to give 0.1% ammonium acetate 20:80 acetonitrile solution with pH 7.72. Eluents were detected with UV spectrophotometry at 337 nm. As a standard set, the retention times of β-estradiol, nifedipine, quinoline, phenol and 2-nitrophenol were determined (log k′80) and the dead time was extrapolated based on the reported log k′80 values originally reported by Caron et. al (log k′80*). The average value of the dead time for the standard set was 0.3001 minutes. Therefore, for consistency, 0.3 minutes was used as the dead time for all test samples. Experiments were performed in triplicate with a maximum percent standard deviation of 6.85%.

MOLM13 cells = assay: Cytotoxicity against MOLM13 cells; assay type: cell-based; conditions: MOLM13 cells, read-out: IC50
Source text: as §1

MV411 cells = assay: MTS cytotoxicity assay against MV411 cells; assay type: cell-based; conditions: Homo sapiens, MV4-11
Description: The obtained compounds were tested in biological experiments to measure their potency in inhibiting the growth of AML cells and in their degradation of CDK9. These measurements are reported as half-maximum growth inhibitory and half-maximum degradation concentrations, IC50s and DC50s, respectively. Maximum percent degradation (Dmax) values were also obtained during the CDK9 degradation assessments. The common MTS assay was used to acquire the IC50 values, while the DC50 values were obtained using an automated western blot experiment. These values are presented in Table 2, along with pIC50 (log(nM IC50)) to more accurately reflect the differences/lack thereof in in vitro cytotoxicity. The notation “N:N*” represents the number of linker atoms on each side of the rigid triazole ring for a given degrader. Predicted log D values, calculated using the ChemAxon […], are also provided for each degrader. To characterize the physicochemical properties of the new degrader series, two additional assays were performed: a kinetic aqueous solubility assay and the chromatographic log D experiment described earlier. Aqueous solubility is shown in μM while experimentally determined log D is shown as log k′80. Details regarding the execution of each experiment are provided below.

[2] = phosphate buffered saline, pH 7.4, aqueous buffer, kinetic from dmso stock
[3] = Homo sapiens, MOLM-13, cytotoxicity

Row | Molecule | DC50 (CDK9) | logk′80 [1] | solubility at 1.5 h (Kinetic solubility assay; [2]) | IC50 (MOLM13 cells; [3]) | also measured
1 | 1-((1-(1-((2-(2,6-dioxopiperidin-3-yl)-1,3-dioxoisoindolin-4-yl)glycyl)azetidin-3-yl)-1H-1,2, 3-triazol-4-yl)methyl)-N-(((2-((5-fluoro˜4-(4-fluoro-2-methoxyphenyl)pyridin-2-yl)amino)pyridin-4-yl)methyl)(methyl)(oxo)-16-sulfaneylidene)piperidine-3-carboxamide [Compound 4.63] | 460 nM | 0.19 |  |  | Solubility (Kinetic solubility assay): 10.8 µM; IC50 (MOLM13 cells; cytotoxicity): 550 nM
2 | COc1cc(F)ccc1-c1cc(Nc2cc(CS(C)(=N)=O)ccn2)ncc1F (racemic) [Compound 4.16, ((2-((5-fluoro-4-(4-fluoro-2-methoxyphenyl)pyridin-2-yl)amino)pyridin-4-yl)methyl)(imino)(methyl)4-sulfa-none, reference compound] |  | 0.15 | 403 µM (≈ 163 µg/mL) | 60 nM | 
3 | O=C(NC1CCNCC1)c1n[nH]cc1NC(=O)c1c(Cl)cccc1Cl [AT7519, 4-(2,6-dichlorobenzamido)-N-(piperidin-4-yl)-1H-pyrazole-3-carboxamide, reference compound] |  |  |  |  | EC50 (MV411 cells; Table 1, cytotoxicity MV411 cells): 200 nM; IC50 (MV411 cells; defined as log(nM IC50), MV411, read-out: pIC50 (converted)): 126 nM; IC50 (MV411 cells; growth inhibition, MV411 cells, MTS, read-out: IC50): 119 nM
4 | COc1cc(F)ccc1-c1cc(Nc2cc(CS(C)(=O)=NC(=O)CCCCc3cn(CCCOc4cccc5c4C(=O)N(C4CCC(=O)NC4=O)C5=O)nn3)ccn2)ncc1F (stereo not shown) [Compound 4.31, 5-(1-(3-((2-(2,6-dioxopiperidin-3-yl)-1,3-dioxoisoindolin-4-yl)oxy)propyl)-1H-1,2,3-triazol-4-yl)-N-(((2-((5-fluoro-4-(4-fluoro-2-methoxyphenyl)pyridin-2-yl)amino)pyridin-4-yl)methyl)(methyl)(oxo)-16-sulfaneylidene)pentanamide] |  | 0.17 | < 5 µM | 170 nM | 
5 | COc1cc(F)ccc1-c1cc(Nc2cc(CS(C)(=O)=NC(=O)CCCCCCCCCCNC(=O)CNc3cccc4c3C(=O)N(C3CCC(=O)NC3=O)C4=O)ccn2)ncc1F (stereo not shown) [Compound 4.32, 11-(2-((2-(2,6-dioxopiperidin-3-yl)-1,3-dioxoisoindolin-4-yl)amino)acetamido)-N-(((2-((5-fluoro-4-(4-fluoro-2-methoxyphenyl)pyridin-2-yl)amino)pyridin-4-yl)methyl)(methyl)(oxo)-16-sulfaneylidene)undecanamide] | 120 nM | 0.28 |  | 140 nM | 
6 | COc1cc(F)ccc1-c1cc(Nc2cc(CS(C)(=O)=NC(=O)CCc3cn(CCCOc4cccc5c4C(=O)N(C4CCC(=O)NC4=O)C5=O)nn3)ccn2)ncc1F (stereo not shown) [Compound 4.33, 3-(1-(3-((2-(2,6-dioxopiperidin-3-yl)-1,3-dioxoisoindolin-4-yl)oxy)propyl)-1H-1,2,3-triazol-4-yl)-N-(((2-((5-fluoro-4-(4-fluoro-2-methoxyphenyl)pyridin-2-yl)amino)pyridin-4-yl)methyl)(methyl)(oxo)-16-sulfaneylidene)propenamide] | 170 nM | 0.15 |  | 190 nM | 
7 | COc1cc(F)ccc1-c1cc(Nc2cc(CS(C)(=O)=NC(=O)CN3CCN(Cc4cn(C5CN(c6cccc7c6C(=O)N(C6CCC(=O)NC6=O)C7=O)C5)nn4)CC3)ccn2)ncc1F (stereo not shown) [Compound 4.50, 2-(4-((1-(1-(2-(2,6-dioxopiperidin-3-yl)-1,3-dioxoisoindolin-4-yl)azetidin-3-yl)-11H-1,2,3-triazol-4-yl)methyl)piperazin-1-yl)-N-(((2-((5-fluoro-4-(4-fluoro-2-methoxyphenyl)pyridin-2-yl)amino)pyridin-4-yl)methyl)(methyl)(oxo)-16-sulfaneylidene)acetamide] | 930 nM |  | ~15 µM (≈ 13.8 µg/mL) | 1540 nM | Solubility (Kinetic solubility assay): 13.9 µM (≈ 12.8 µg/mL)
8 | COc1cc(F)ccc1-c1cc(Nc2cc(CS(C)(=O)=NC(=O)CN3CCC(c4cn(CC(=O)N5CCN(CC#Cc6cccc7c6C(=O)N(C6CCC(=O)NC6=O)C7=O)CC5)nn4)CC3)ccn2)ncc1F (stereo not shown) [Compound 4.61, 2-(4-(1-(2-(4-(3-(2-(2,6-dioxopiperidin-3-yl)-1,3-dioxoisoindolin-4-yl)prop-2-yn-1-yl)piperazin-1-yl)-2-oxoethyl)-1H-1,2,3-triazol-4-yl)piperidin-1-yl)-N-(((2-((5-fluoro-4-(4-fluoro-2-methoxyphenyl)pyridin-2-yl)amino)pyridin-4-yl)methyl)(methyl)(oxo)-16-sulfaneylidene)acetamide] | 170 nM |  | 1.8 µM (≈ 1.83 µg/mL) | 340 nM | 
9 | COc1cc(F)ccc1-c1cc(Nc2cc(CS(C)(=O)=NC(=O)C3CCCN(Cc4cn(CC(=O)N5CCN(CCCc6cccc7c6C(=O)N(C6CCC(=O)NC6=O)C7=O)CC5)nn4)C3)ccn2)ncc1F (stereo not shown) [Compound 4.74, 1-({1-[2-(4-{3-[2-(2,6-dioxopiperidin-3-yl)-1,3-dioxo-2,3-dihydro-1H-isoindol-4-yl]propyl}piperazin-1-yl)-2-oxoethyl]-1H-1,2,3-triazol-4-yl}methyl)-N-{[(2-{[5-fluoro-4-(4-fluoro-2-methoxyphenyl)pyridin-2-yl]amino}pyridin-4-yl)methyl](methyl)oxo-λ^6-sulfanylidene}piperidine-3-carboxamide] |  | 0.15 |  |  | 
10 | COc1cc(F)ccc1-c1cc(Nc2cc(CS(C)(=O)=NC(=O)C3CCCN(Cc4cn(CC5CCN(c6cccc7c6C(=O)N(C6CCC(=O)NC6=O)C7=O)CC5)nn4)C3)ccn2)ncc1F (stereo not shown) [Compound 4.77, 1˜ {[1-({1-[2-(2,6-dioxopiperidin-3-yl)-1,3-dioxo-2,3-dihydro-1H-isoindol-4-yl]piperidin-4-yl}methyl)-1H-1,2,3-triazol-4-yl]methyl}-N-{[(2-{[5-fluoro-4-(4-fluoro-2-methoxyphenyl)pyridin-2-yl]amino}pyridin-4-yl)methyl](methyl)oxo-λ^6-sulfanylidene}piperidine-3-carboxamide] | 260 nM |  | 8.9 µM (≈ 8.46 µg/mL) | 640 nM | 
11 | COc1cc(F)ccc1-c1cc(Nc2cc(CS(C)(=O)=NC(=O)CN3CCC(N4CCC(C#Cc5ccc6c(c5)CN(C5CCC(=O)NC5=O)C6=O)CC4)CC3)ccn2)ncc1F (stereo not shown) [Compound 4.103, 2-(4-{2-[2-(2,6-dioxopiperidin-3-yl)-1-oxo-2,3-dihydro-1H-isoindol-5-yl]ethynyl}-[1,4′-bipiperidin]-1′-yl)-N-{[(2-{[5-fluoro-4-(4-fluoro-2-methoxyphenyl)pyridin-2-yl]amino}pyridin-4-yl)methyl](methyl)oxo-26-sulfanylidene}acetamide] |  | 0.15 |  |  | Solubility (Kinetic solubility assay): 29 µM and 29.1 µM; IC50 (MOLM13 cells; cytotoxicity): 120 nM
12 | COc1cc(F)ccc1-c1cc(Nc2cc(CS(C)(=O)=NC(=O)CN3CCC(N4CCN(CC#Cc5ccc6c(c5)CN(C5CCC(=O)NC5=O)C6=O)CC4)CC3)ccn2)ncc1F (stereo not shown) [Compound 4.104, 2-[4-(4-{3-[2-(2,6-dioxopiperidin-3-yl)-1-oxo-2,3-dihydro-1H-isoindol-5-yl]prop-2-yn-1-yl}piperazin-1-yl)piperidin-1-yl]-N-{[(2-{[5-fluoro-4-(4-fluoro-2-methoxyphenyl)pyridin-2-yl]amino}pyridin-4-yl)methyl](methyl)oxo-16-sulfanylidene}acetamide] |  |  | 51.6 µM (≈ 46.1 µg/mL) | > 1000 nM | solubility kinetic at 1.5 h (Kinetic solubility assay; [2]): > 50 µM; IC50 (MOLM13 cells; cytotoxicity): 1100 nM
